Test results reported in publication PMC12136225, “Antinociceptive effects of intrathecal Neuropeptide B/W receptor 1 agonists in mouse acute nociception, peripheral neuropathy, and inflammatory pain models” (Research Square, 2025).

How the values were obtained:
C57BL/6 mice [1] = test: Acute nociception hot plate latency assay; type: in vivo, mouse; conditions: for Duration of significant antinociception after administration / Onset of significant antinociceptive effect / Time of peak antinociceptive effect: i.t. 56 and 100 μg, hot plate, n = 8; for ED50 Hot Plate Latency: i.t. injection, 1 hour following treatment, 52 °C hot plate, % MPE, male and female mice, n = 8, 95% confidence intervals in parentheses
Description: (§1) NPB-23 ([…]NH2) and RTIBW-16 ([desaminoTrp^1]-Tyr-Lys-Ava-Ava-Ava-Gly-Arg-Ala-Ala-Gly-Leu-Leu-NH2, compound 30 in Ref. [27]) were synthesized as previously reported. RTIBW-16 and NPB-23 were administered via i.t. injections between L4 and L5 vertebrae with an injection volume of 5 μL. The dosing of these compounds was based on previous literature.
(§2) Intrathecal injections were conducted as previously described; injections occurred between the L4 and L5 vertebrae. Briefly, an ‘injection catheter’ made from a 27-gauge needle and polyethylene (PE) 20 tubing was connected to a 10 μl Hamilton syringe. Injections occurred over 5 sec and were generally accompanied by a hind paw twitch response. A 100% motor recovery rate was observed.
Acute nociception measurements were collected via the hot plate latency assay as previously described. Mice were placed on a heated (52 °C) enclosed Hot Plate Analgesia Meter (Columbus Instruments, Columbus, OH). The latency to jump/lick/shake/flick a hind paw was recorded. A 30 second cut-off was used to prevent tissue damage. Latencies were recorded prior to administration of compounds and at each time point over the 24-hour study (0.5, 1, 1.5, 2, 3, 4, 6, 24 hr time points). Latency measurements were taken by observers blinded to treatment conditions. Mice were given a 1-week washout period between test days.
(§3) Hot plate data were converted to percent maximum possible effect (% MPE) with the following equation: ([experimental test value – baseline value) / (30 sec – baseline value)] * 100). Behavioral data were analyzed using a repeated measures two-way analysis of variance (ANOVA) for RTIBW-16 and NPB-23 treatment time course analysis with time as one factor and compound dosing as a second factor [35]. Individual treatment effects were analyzed using repeated measures one-way ANOVA. Dunnett’s test was used for post hoc analysis following a significant ANOVA result. Two tailed, paired t-tests were conducted to compare the magnitude of baseline von Frey measurements to their respective pre-paclitaxel and pre-carrageenan measurements. A p value of < 0.05 was considered statistically significant. As no significant sex effect was observed, male and female data were collapsed. […] When the mean effect of a drug in an experiment was greater than 50%, the ED50 values and corresponding 95% confidence limits were calculated using linear regression, where slopes were allowed to vary. The computer program GraphPad Prism version 10.3 (GraphPad Software Inc.; San Diego, CA) was used in the statistical analyses. Data are plotted as mean ± the standard error of the mean.

NPBWR1 = conditions: NPB-23 ref 24, 25; RTIBW-16 ref 27; cited from earlier work
Source text: (§4) So far, behavioral studies have mostly been conducted in rats and relied on exogenous administration of endogenous ligands. NPB is a 29 amino acid peptide with a bromine at the C-6 position of the indole moiety in the N-terminal tryptophan (Trp). […] NPW exists in two functional peptide forms consisting of 23 and 30 amino acid residues.

C57BL/6 mice [2] = test: Carrageenan-induced paw edema (paw thickness, digital caliper); type: in vivo, mouse; conditions: i.t., 1 hour time point, change in paw thickness, n = 8
Description: as §1
Paclitaxel was purchased from Bio-Techne (Minneapolis, MN) and was administered in a vehicle solution containing a 1:1:18 ratio of ethanol (100%), polyethylene glycol monooleyl ether (Tokyo Chemical Industry America; Portland, OR), and saline (0.9% w/v NaCl) as previously described. […]
After use in the hot plate latency assay, the same cohort was then used for the carrageen model of inflammatory pain. […] Mice were habituated to the von Frey apparatus and were assessed using the same “up-down” method as described earlier. […] The change in paw thickness from baseline was assessed with digital caliper measurements. Paw thickness and von Frey responses were measured over a 24-hour time course (1, 2, 3, 4, 6, 24 hr timepoints), with paw thickness measurements occurring immediately after the von Frey assay at each time point. […]

C57BL/6 mice [3] = test: Paclitaxel CIPN model, von Frey mechanical allodynia; type: in vivo, mouse; conditions: for Duration of reversal of mechanical allodynia following treatment: i.t. 100 and 56 μg, paclitaxel CIPN, n = 8
Description: as §1
(§5) Paclitaxel was purchased from Bio-Techne (Minneapolis, MN) and was administered in a vehicle solution containing a 1:1:18 ratio of ethanol (100%), polyethylene glycol monooleyl ether (Tokyo Chemical Industry America; Portland, OR), and saline (0.9% w/v NaCl) as previously described. A dosing cycle of paclitaxel consisted of a total of four intraperitoneal (i.p.) paclitaxel injections (8 mg/kg per injection, given every other day. Carrageenan was purchased from Sigma-Aldrich (St. Louis, MO) and made into a 0.3% w/v solution in saline for injections.
as §2
To assess mechanical allodynia within CIPN, mice were habituated to the von Frey testing environment for four consecutive days in 30-minute sessions prior to the first testing session. Baselines were measured as previously described using von Frey monofilaments (North Coast Medical; Morgan Hills, CA) to establish responses to light mechanical touch before paclitaxel or vehicle administration. During testing mice were placed atop a wire mesh screen with spaces 0.5 mm apart. Mice were singly placed beneath an inverted wire mesh basket (8 cm diameter, 15 cm height) and allowed to habituate to the apparatus for 30 minutes before testing. The von Frey assay utilizes a series of calibrated monofilaments (0.4–4.0 g stimulus intensity), applied to the left and right plantar surface of the hind paws utilizing the “up-down” method. […] Responses from the von Frey assay were measured over a 24-hour time course (1, 2, 3, 4, 6, 24 hr timepoints). […]
Hot plate data were converted to percent maximum possible effect (% MPE) with the following equation: ([experimental test value – baseline value) / (30 sec – baseline value)] * 100). Behavioral data were analyzed using a repeated measures two-way analysis of variance (ANOVA) for RTIBW-16 and NPB-23 treatment time course analysis with time as one factor and compound dosing as a second factor [35]. Individual treatment effects were analyzed using repeated measures one-way ANOVA. […]

C57BL/6 mice [4] = test: Carrageenan inflammatory pain model, von Frey mechanical allodynia; type: in vivo, mouse; conditions: for Attenuation of carrageenan-induced mechanical allodynia: i.t. 100 μg and 56 μg; for Attenuation of carrageenan-induced mechanical allodynia / Time of delayed-onset partial mechanical allodynia attenuation after administration: von Frey, n = 8; for ED50 Carrageenan von Frey: i.t. injection, 1 hour following treatment, carrageenan-induced mechanical allodynia, n = 8, 95% confidence intervals in parentheses; for Time of delayed-onset partial mechanical allodynia attenuation after administration: i.t. lower doses of 10 μg and 5.6 μg
Description: as §1, §5, §2
After use in the hot plate latency assay, the same cohort was then used for the carrageen model of inflammatory pain. Mice were given at least a one-week washout period between experimental use. Mice were habituated to the von Frey apparatus and were assessed using the same “up-down” method as described earlier. The carrageenan inflammatory pain model was induced as previously described. Briefly, an intraplantar injection of 0.3% w/v carrageenan in a 20 μL volume using a 27-gauge needle was administered into the right hind paw. […]. The left paw served as an internal control for each subject. The change in paw thickness from baseline was assessed with digital caliper measurements. Paw thickness and von Frey responses were measured over a 24-hour time course (1, 2, 3, 4, 6, 24 hr timepoints), with paw thickness measurements occurring immediately after the von Frey assay at each time point. Mechanical allodynia assessments and paw thickness measurements were conducted by observers blinded to treatment conditions. Intraplantar administration of carrageenan and digital caliper measurement of paw edema were conducted with mice restrained utilizing a plexiglass mouse restrainer (Stoelting Co., Wood Dale, IL)
as §3

[5] = cited from earlier work
Source text: as §4

Trp-Tyr-Lys-Pro-Ala-Ala-Gly-His-Ser-Ser-Tyr-Ser-Val-Gly-Arg-Ala-Ala-Gly-Leu-Leu-Ser-Gly-Leu-NH2 [NPB-23, truncated human NPB without a bromine at the N-terminal Trp residue; NPBWR1 agonist]
Duration of significant antinociception after administration (C57BL/6 mice [1]): up to 6 hours | Onset of significant antinociceptive effect (C57BL/6 mice [1]): 0.5 h | Time of peak antinociceptive effect (C57BL/6 mice [1]): 1.5 h | ED50 Hot Plate Latency (C57BL/6 mice [1]): 18.36 (10.17–33.15) μg | In vitro NPBWR1 agonist activity compared with NPB (NPBWR1): equipotent | Effect on carrageenan-induced paw edema (initial swelling) compared to vehicle (C57BL/6 mice [2]): significantly reduced the magnitude of initial swelling | Duration of reversal of mechanical allodynia following treatment (C57BL/6 mice [3]; von Frey): up to 2 hours | ED50 Paclitaxel CIPN von Frey (C57BL/6 mice [3]; i.t. injection, 1 hour following treatment, reversal of paclitaxel-induced mechanical allodynia, n = 8, 95% confidence intervals in parentheses): 45.06 (33.91–59.88) μg | Reversal of CIPN mechanical allodynia at 1 hour timepoint (C57BL/6 mice [3]; i.t., von Frey, 1 hour): reverse the CIPN mechanical allodynia back to the baseline | Attenuation of carrageenan-induced mechanical allodynia (C57BL/6 mice [4]): robust mechanical allodynia blockade | ED50 Carrageenan von Frey (C57BL/6 mice [4]): 19.92 (13.52–29.35) μg | Time of delayed-onset partial mechanical allodynia attenuation after administration (C57BL/6 mice [4]): 2 h

[desaminoTrp^1]-Tyr-Lys-Ava-Ava-Ava-Gly-Arg-Ala-Ala-Gly-Leu-Leu-NH2 [RTIBW-16]
Duration of significant antinociception after administration (C57BL/6 mice [1]): 2 h | Onset of significant antinociceptive effect (C57BL/6 mice [1]): 0.5 h | Time of peak antinociceptive effect (C57BL/6 mice [1]): 1.5 h | ED50 Hot Plate Latency (C57BL/6 mice [1]): 42.86 (25.09–73.21) μg | Metabolic stability in rat plasma [5]: improved metabolic stability in rat plasma | Effect on carrageenan-induced paw edema (initial swelling) compared to vehicle (C57BL/6 mice [2]): significantly reduced the magnitude of initial swelling | Duration of reversal of mechanical allodynia following treatment (C57BL/6 mice [3]; von Frey): up to 3 hours | Attenuation of carrageenan-induced mechanical allodynia (C57BL/6 mice [4]): fully attenuated peak carrageenan-induced mechanical allodynia | ED50 Carrageenan von Frey (C57BL/6 mice [4]): 29.47 (21.71–40.00) μg | Time of delayed-onset partial mechanical allodynia attenuation after administration (C57BL/6 mice [4]): 3 h
